Assay results reported in article PMC8274952 (European journal of medicinal chemistry, 2019).

Key:
[1] = molecular target: T1, TOP1-DNA covalent cleavage complexes (TOP1cc) (Homo sapiens, UniProt P11387); assay: Immunocomplex of enzyme to DNA; conditions: HCT116 cells; for Induction of cellular TOP1cc: 1 h, CPT 25 and 50 μM, 12 at 25, 50 and 100 μM
T1 sequence (P11387 2-765 limits assumed): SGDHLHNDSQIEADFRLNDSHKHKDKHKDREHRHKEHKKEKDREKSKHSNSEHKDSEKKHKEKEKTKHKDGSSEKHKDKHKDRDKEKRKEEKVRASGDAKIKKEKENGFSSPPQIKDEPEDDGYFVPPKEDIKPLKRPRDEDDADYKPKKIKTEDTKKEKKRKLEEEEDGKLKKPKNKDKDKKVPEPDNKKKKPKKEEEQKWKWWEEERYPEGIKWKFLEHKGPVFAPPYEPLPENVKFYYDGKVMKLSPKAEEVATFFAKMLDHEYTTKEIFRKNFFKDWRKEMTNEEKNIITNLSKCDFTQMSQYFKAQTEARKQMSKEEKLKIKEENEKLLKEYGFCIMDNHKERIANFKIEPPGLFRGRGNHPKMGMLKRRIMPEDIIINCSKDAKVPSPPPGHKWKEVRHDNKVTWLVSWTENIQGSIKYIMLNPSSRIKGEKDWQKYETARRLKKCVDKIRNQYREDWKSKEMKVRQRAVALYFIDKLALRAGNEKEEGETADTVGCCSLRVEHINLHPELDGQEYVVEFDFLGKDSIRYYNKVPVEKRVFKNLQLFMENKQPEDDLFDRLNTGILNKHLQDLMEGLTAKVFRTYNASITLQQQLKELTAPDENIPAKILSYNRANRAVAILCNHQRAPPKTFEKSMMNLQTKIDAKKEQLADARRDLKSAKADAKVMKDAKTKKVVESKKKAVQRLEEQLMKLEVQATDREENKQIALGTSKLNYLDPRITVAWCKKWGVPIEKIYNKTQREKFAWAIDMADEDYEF

A549 cells = assay: cells; conditions: Homo sapiens, A549, 72 h, read-out: GI50 ± SD
γH2AX foci = γH2AX foci immunofluorescence in HCT116 cells; assay type: cell-based, human; conditions: 1 μM, 3 h
[2] = tested on: human colon cancer HCT116 xenograft; assay: In vivo antitumor efficiency, HCT116 xenograft; conditions: HCT116 xenograft nude mice; 5, 10, 20 mg/kg ip daily
Kunming male mice = assay: Acute toxicity in vivo; conditions: n = 6
[3] = tested on: human breast cancer MCF-7 xenograft; assay: In vivo antitumor efficiency, MCF-7 xenograft; conditions: MCF-7 xenograft nude mice; 5, 10, 20 mg/kg ip daily
HCT116 cells = conditions: 0.5, 1 and 2 μM, 24 h

Row | Structure (SMILES) | Induction of cellular TOP1cc [1] | GI50 (A549 cells) [nM] | Induction of cellular TOP1cc compared with CPT ([1]; 25 μM) | Induction of γH2AX foci (DNA damage) (γH2AX foci) | tumor volume [2] | mice survival (Kunming male mice; 122.9 mg/kg single ip dose, 7 days) | mice survival (Kunming male mice; 153.6 mg/kg single ip dose, 7 days) | mice survival (Kunming male mice; 192 mg/kg single ip dose, 7 days) | mice survival (Kunming male mice; 240 mg/kg single ip dose, 7 days) | mice survival (Kunming male mice; 300 mg/kg single ip dose) | tumor volume [3] | Induction of apoptosis (HCT116 cells)
1 | CC[C@@]1(O)C(=O)OCc2c1cc1n(c2=O)Cc2cc3ccccc3nc2-1 [CPT, camptothecin, reference compound] | induce the formation of cellular TOP1cc in a dose-dependent manner | 99 ± 17 | – | – | – | – | – | – | – | – | – | –
2 | CNCCn1c(=O)c2cc(OC)c(OC)cc2c2ccc3cc4c(cc3c21)OCO4 [Compound 12, 2,3-Dimethoxy-12-(2-(methylamino)ethyl)-[1,3]dioxolo[4’,5’:4,5]benzo[1,2-c]phenanthridin-13(12H)-one] | induce the formation of cellular TOP1cc in a dose-dependent manner | – | higher ability to induce cellular TOP1cc at 25 μM than CPT | effectively induces γH2AX foci | significantly reduced the tumor volume in a dose-dependent manner | all mice survived | four mice survived | three mice survived | two mice survived | All mice died within 5 days | significantly reduced the tumor volume in a dose-dependent manner | induce HCT116 cells apoptosis in a dose-dependent manner
